According to publication PMC6412891, “Synthesis and Biological Evaluation of Novel Thiazolyl-Coumarin Derivatives as Potent Histone Deacetylase Inhibitors with Antifibrotic Activity” (Molecules, 2019):

Columns and labels:
HDAC1 human recombinant = target: T1, HDAC1 human recombinant (Homo sapiens, UniProt Q13547); assay: HDAC1 inhibitory activity, fluorometric kit; format: biochemical; settings: Class I
T1 construct: purchased Enzo Life Science BML-AK511

HDAC6 human recombinant = target: T2, HDAC6 human recombinant (Homo sapiens, UniProt Q9UBN7); assay: HDAC6 inhibitory activity, fluorometric kit; format: biochemical; settings: Class II
T2 construct: purchased Enzo Life Science BML-AK516
T2 sequence (Q9UBN7 1-1215): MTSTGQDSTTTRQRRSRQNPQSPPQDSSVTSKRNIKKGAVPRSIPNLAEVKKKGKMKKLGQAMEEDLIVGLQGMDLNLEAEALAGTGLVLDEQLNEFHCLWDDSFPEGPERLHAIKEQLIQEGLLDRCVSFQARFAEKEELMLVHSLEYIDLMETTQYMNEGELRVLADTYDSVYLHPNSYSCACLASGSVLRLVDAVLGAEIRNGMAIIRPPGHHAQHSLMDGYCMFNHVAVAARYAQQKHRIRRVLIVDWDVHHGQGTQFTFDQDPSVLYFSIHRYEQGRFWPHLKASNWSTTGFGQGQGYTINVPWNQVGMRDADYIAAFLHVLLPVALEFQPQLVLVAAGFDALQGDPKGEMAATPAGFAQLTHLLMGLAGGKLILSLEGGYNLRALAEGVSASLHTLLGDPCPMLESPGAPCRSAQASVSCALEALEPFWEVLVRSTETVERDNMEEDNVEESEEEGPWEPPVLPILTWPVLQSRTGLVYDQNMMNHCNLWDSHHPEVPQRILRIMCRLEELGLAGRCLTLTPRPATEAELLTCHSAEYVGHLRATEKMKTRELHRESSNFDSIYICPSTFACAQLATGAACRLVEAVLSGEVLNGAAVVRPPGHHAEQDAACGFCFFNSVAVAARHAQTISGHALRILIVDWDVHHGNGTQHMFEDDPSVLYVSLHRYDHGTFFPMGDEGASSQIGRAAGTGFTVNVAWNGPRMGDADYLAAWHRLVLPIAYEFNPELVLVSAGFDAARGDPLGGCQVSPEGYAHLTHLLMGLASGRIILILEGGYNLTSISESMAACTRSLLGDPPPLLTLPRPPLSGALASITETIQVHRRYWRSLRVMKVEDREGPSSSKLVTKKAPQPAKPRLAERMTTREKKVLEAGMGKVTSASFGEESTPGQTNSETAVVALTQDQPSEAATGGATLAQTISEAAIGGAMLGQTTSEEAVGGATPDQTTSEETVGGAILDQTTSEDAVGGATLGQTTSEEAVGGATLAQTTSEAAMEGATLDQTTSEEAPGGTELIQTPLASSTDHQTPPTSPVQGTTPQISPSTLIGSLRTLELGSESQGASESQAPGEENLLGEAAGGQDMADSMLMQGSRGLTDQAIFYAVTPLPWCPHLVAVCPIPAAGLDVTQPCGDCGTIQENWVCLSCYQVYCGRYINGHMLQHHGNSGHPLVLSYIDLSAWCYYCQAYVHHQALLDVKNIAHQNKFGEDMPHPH

[1] = Cytotoxicity assay (Alamar Blue) in cardiac fibroblasts; format: cell-based, rat; settings: Sprague-Dawley, rat, primary neonatal rat cardiac fibroblasts (CFs), CFs treated for 48 h
Experimental: CFs were treated for 48 h with all the new CTz derivatives in a broad concentration range (100 μM^−1 mM), and their cytotoxicity was then evaluated. In Table 3 cytotoxic concentration 50 (CC50) values for each of the synthesized compounds are shown. […] When comparing the different ZBG the series 5 is the least cytotoxic for CFs, while series 8 was the most cytotoxic.
(§1) Sprague Dawley rats were obtained from the Animal Breeding Facility of the School of Chemical and Pharmaceutical Sciences at the University of Chile. All studies followed the Guide for the Care and Use of Laboratory Animals published by the US National Institutes of Health (NIH Publication 8th, 2011), and experimental protocols were approved by the University of Chile Institutional Ethics Review Committee. CF were isolated from of 2 or 3–day–old Sprague-Dawley rats and cultured as described previously. Briefly, the neonatal rats were decapitated and their hearts were extracted under aseptic environment. Atria were removed and ventricles were cut into small pieces (~1–2 mm) for posterior colagenase II digestion. The digestion yield was separated by 10 min centrifugation at 89×g. The pellet was resuspended in 10 mL of Dulbecco’s Modified Eagle’s Medium/Nutrient F-12 (DMEM-F12) supplemented with 10% FBS and antibiotics (100 μg/mL streptomycin and 100 units/mL penicillin) and cultured in a humid atmosphere of 5% CO2 and 95% O2 at 37°C until confluence (5 days). The purity of the CFs population was assessed through the expression of several markers. CFs had positive staining against vimentin (Santa Cruz Biotechnology), while being negative against sarcomeric actin and desmin (Sigma-Aldrich). Experiments were performed on cells at passage 1. Cells were cultured in 35-mm well plates and serum starved for 24 h prior to stimulation.
(§2) To evaluate cytotoxicity, CFs were seeded in 12 microwell plates at a ratio of 2 × 10^4 cell/cm^2, cultured in DMEM–F12 medium + 10% FBS, which was subsequently replaced by DMEM–F12. After 24 h of serum starvation derivatives were applied at proper times and concentrations in accordance to experimental procedures. Cell viability assays were carried out using Alamar Blue®, a nontoxic, cell permeable non fluorescent compound that is blue in color. Viable cells reduce resazurin to resorufin, which produces very bright red fluorescence which is used as a quantitative cell viability measure. 10 μL of 0.2 mg/mL Alamar Blue® was added into each well followed by incubation for 24 h. The fluorescence of Alamar Blue® was read using microplate reader at 570 excitation and emission to 595 nm. Cell survival was expressed as percentage over the untreated cells. To evaluate CFs proliferation assay, cells were seeded as mentioned before, and after serum starvation, they were stimulated by 10% fetal bovine serum (FBS), in presence/absence of CTz derivatives for 24 h, at concentrations according to experiment. Cell proliferation was quantified by Alamar Blue®, according to protocol mentioned before. Cell proliferation was expressed as percentage over the control FBS treated cells.

[2] = tested on: neonatal rat cardiac fibroblasts (CFs); assay: FBS-induced cardiac fibroblast proliferation assay (Alamar Blue); format: cell-based; settings: 10% FBS-induced CF proliferation, 48 h, read-out: Inhibition percentage of cell proliferation
Experimental: CFs were treated for 48 h with 10% fetal bovine serum (FBS), to induce CFs proliferation in presence/absence of each new CTz derivatives in a concentration range of 1–10 μM. In Table 4, the inhibition percentage of cell proliferation for each concentration of the synthesized compounds are shown. All derivatives inhibited CFs proliferation induce by serum.
as §1, with “Cells were cultured in 35-mm well plates and serum starved for 24 h prior to stimulation.” left out
as §2, with “10 μL of 0.2 mg/mL Alamar Blue® was added into each well followed by incubation for 24 h.” left out, “To evaluate CFs proliferation assay, cells were seeded as mentioned before, and after serum starvation, they were stimulated by 10% fetal bovine serum (FBS), in presence/absence of CTz derivatives for 24 h, at concentrations according to experiment.” left out

[3] = tested on: HDACs HeLa cells nuclear extract; assay: HDAC inhibitory activity, fluorometric kit, HeLa cell nuclear extract; format: biochemical, human; settings: HeLa cell nuclear extract as HDAC source

T1 sequence (Q13547 whole entry): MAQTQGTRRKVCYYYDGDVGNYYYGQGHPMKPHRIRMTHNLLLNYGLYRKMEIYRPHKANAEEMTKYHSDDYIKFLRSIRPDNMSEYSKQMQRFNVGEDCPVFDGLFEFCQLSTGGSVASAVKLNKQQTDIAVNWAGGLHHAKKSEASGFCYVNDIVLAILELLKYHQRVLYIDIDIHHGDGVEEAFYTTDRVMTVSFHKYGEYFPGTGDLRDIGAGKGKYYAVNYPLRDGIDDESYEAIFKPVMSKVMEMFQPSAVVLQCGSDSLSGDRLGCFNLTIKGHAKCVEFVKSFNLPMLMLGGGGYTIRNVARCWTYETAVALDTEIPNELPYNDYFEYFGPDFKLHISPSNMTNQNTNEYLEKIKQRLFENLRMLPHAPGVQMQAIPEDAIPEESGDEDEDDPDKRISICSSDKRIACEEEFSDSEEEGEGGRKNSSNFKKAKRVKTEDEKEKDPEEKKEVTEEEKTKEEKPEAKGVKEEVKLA

Row | SMILES | IC50 (HDAC1 human recombinant) [µM] | IC50 (HDAC6 human recombinant) [µM] | CC50 at 48 h [1] [µM] | inhibition at 1 µM [2] [%] | inhibition at 5 µM [2] [%] | inhibition at 10 µM [2] [%] | IC50 [3] [µM]
1 | COc1ccc2oc(=O)c(-c3csc(NC(=O)CCCCC(=O)O)n3)cc2c1 [Compound 7c] | 3.38 ± 0.302 | 2.43 ± 0.157 | 99.5 ± 6.3 | 6 ± 0.4 | 33 ± 4.1 | 48.8 ± 5.2 | 4.7 ± 0.31
2 | O=C(O)CCCCC(=O)Nc1nc(-c2cc3cc(Br)ccc3oc2=O)cs1 [Compound 7b] | 4.67 ± 0.362 | 6.34 ± 0.466 | 80 ± 23.6 | 2.4 ± 1.1 | 36.1 ± 5.4 | 48 ± 4.8 | 5.4 ± 0.4
3 | COc1ccc2oc(=O)c(-c3csc(NC(=O)c4ccc(O)c(O)c4)n3)cc2c1 [Compound 6c] | 0.504 ± 0.0314 | 0.581 ± 0.0275 | 124 ± 12.8 | 10.9 ± 3.6 | 42.2 ± 1.8 | 64.9 ± 2.3 | 0.477 ± 0.0275
4 | O=C(Nc1nc(-c2cc3cc(Br)ccc3oc2=O)cs1)c1ccc(O)c(O)c1 [Compound 6b] | 0.613 ± 0.0328 | 0.449 ± 0.0207 | 102 ± 10.3 | 15.8 ± 3.6 | 40 ± 1.8 | 64.1 ± 1.7 | 0.509 ± 0.0233
